Test results from patent US12428413B2 (CHDI Foundation, Inc., priority 2019, dated 2025).
pIC50: −log10 of the molar value.

Key:
[1] = biological target: human catalytic domain ROCK II protein (amino acids 5-554) with a N-terminal GST tag (Homo sapiens, UniProt O75116); assay: biochemical
Experimental: The potency of Rho-associated protein kinase (ROCK) II inhibitors was quantified by measuring ROCKII kinase domain enzymatic activity using ADP-Glo™ Kinase Assay format. […] ADP-Glo™ Reagent was added that terminates ROCKII reaction and depletes remaining ATP. Kinase Detection Reagent was added to convert ADP to ATP and allow newly synthesized ATP to be measured using luciferase/luciferin reaction. The light generated correlates to the amount of ADP generated in the ROCKII biochemical reaction, which is indicative of ROCKII activity.
ROCK inhibitor compound plate preparation. Lyophilized ROCK inhibitors were re-suspended to a final concentration of 10 mM in 100% dimethyl sulfoxide (DMSO) and control reference compound, Fasudil HCl, to a final concentration of 100 mM in 100% DMSO using Janus automated liquid handler workstation (Perkin Elmer) and were stored at room temperature under nitrogen. Stock compounds and controls were added directly to ECHO plate (Labcyte) by Janus. The Echo 555 liquid handler (Labcyte) dispensed duplicate 10-point concentration-response curves for each compound directly into 384-well, black, U-bottom assay plate (Matrix Technologies Ltd) at 100× final assay concentration. Final compound or control volume per well is 100 nl (0.1 μl). Assay standards were prepared by Echo dispensing 5 nl of 100 mM Fasudil HCl and 95 nl DMSO for full inhibition control (50 μM final assay concentration and 1% DMSO) and 100 nl of DMSO for full activity control (1% DMSO).
The ROCKII catalytic domain enzyme was human catalytic domain ROCK II protein (amino acids 5-554) with a N-terminal GST tag (SignalChem).
Preparation of S6K peptide substrate (20 μM) and ATP (10 μM). The S6K peptide sequence (amino acid sequence [sequence]) was based on human 40 S ribosomal protein S6 (amino acids 230-238) (SignalChem). A 2× working solution of substrate and ATP was prepared from 5 mg/ml stock aliquot (dissolved in 20 mM Tris-HCl, pH 7.5) of S6K peptide diluted to 0.25 μg/10 μl (20 μM) with assay buffer (25 mM MOPS, 12.5 mM 2-glycerophosphate, 5 mM EGTA pH 8.0, 25 mM MgCl2, 2 mM EDTA, 0.25 mM DTT (added on the day of assay) and 0.01% BSA (added on the day of assay)).
Assay procedure. 5 μl/well substrate/ATP mix was added to each well of the assay plate containing compounds using 125 μl 16-channel Matrix electronic pipette (Matrix Technologies Ltd.). The plate was sealed, mixed on orbital shaker at 1000 rpm (rotations per minute) for 10 seconds and centrifuged at 1000 rpm for 1 min. The assay was started by addition of 5 μl/well of the ROCKII enzyme mix to each well using 125 μl 16-channel Matrix electronic pipette. The assay plate was sealed, mixed on orbital shaker at 1000 rpm for 10 seconds and centrifuged at 1000 rpm for 1 min. The assay plate was incubated for 30 min at room temperature on an orbital shaker at 400 rpm. The enzyme reaction was stopped by addition of 10 μl/well of ADP-Glo™ solution to assay plate using 125 μl 16-channel Matrix electronic pipette. The assay plate was sealed, mixed on orbital shaker at 1000 rpm for 10 seconds and centrifuged at 1000 rpm for 1 min. The assay plate was placed in a polystyrene box for 40 minutes at room temperature. Next, 20 μl/well of Kinase Detection Reagent was added to assay plate using 125 μl 16-channel Matrix electronic pipette. The assay plate was further incubated in a polystyrene box for 30 min at room temperature without the seal and luminescence signal was measured using EnVision (Perkin Elmer) in top read mode.

[2] = test system: cellular ROCK activity (cofilin phosphorylation at Ser3) in A7r5 rat smooth muscle cells; assay: Cellular ROCK activity: cofilin (Ser3) phosphorylation, In-Cell Western assay; assay type: cell-based; details: Rattus norvegicus, A7R5, 1 h, 1 hour compound incubation, phospho-cofilin (Ser3), read-out: CELL_IC50
Experimental: The potency of Rho-associated protein kinase (ROCK) inhibitors was quantified by measuring cofilin phosphorylation levels at Serine 3 (Ser3) as a measure of cellular ROCK activity by In-Cell Western assay. […] The assay plate was imaged and quantified on the Odyssey imager (LICOR Biosciences).
ROCK inhibitor compound plate preparation. […] Stock compounds and control are added directly to ECHO plate (Labcyte) by Janus.
A7r5 cell culture and plating. A7r5 cells were cultured according to standard cell culture protocols in A7r5 growth media (DMEM with Glutamax and 10% FBS). […] 45 μl of re-suspended A7r5 cells were plated at 3000 cells/well in a sterile, μclear, black, F-bottom, 384-well microplate (Greiner bio-one). Seeded cells allowed to settle in wells on the bench for 1 hour before incubation at 37° C., 5% CO2 overnight.
Assay reagent and antibody preparations. Wash buffer was prepared by addition of Tween-20 to Dulbecco's Phosphate Buffered Saline (DPBS) (1×) without calcium and magnesium to make 1% Tween-20 as final concentration. Blocking buffer was prepared by addition of TritonX-100 to SeaBlock buffer (ThermoFisher) to make 0.3% TritonX-100 as final concentration. […] Secondary antibody mix was prepared by diluting donkey anti-rabbit 800CW antibody (LICOR Biosciences) 1:1000 in SeaBlock buffer.
Assay procedure. Compound plate was diluted by addition of 19 μl/well compound dilution buffer (DMEM with Glutamax) using 125 μl 16-channel Matrix electronic pipette. 5 μl diluted compound was stamped from compound plate to assay plate containing A7r5 cells using Bravo (384-well head from Agilent) liquid handler and incubated at 37° C., 5% CO2 for 1 hour. Cells were fixed by addition of 5 μl 37% formaldehyde using 125 μl 16-channel Matrix electronic pipette and incubation for 20 min at room temperature. The assay plate was washed 5× with 60 μl/well wash buffer. […] Next, the assay plate was sealed, centrifuged at 1000 rpm for 5 seconds and incubated at 4° C. overnight on an orbital shaker at 300 rpm. […] The assay plate was centrifuged at 1000 rpm for 5 seconds and incubated on an orbital shaker at 300 rpm for 60 min at room temperature. Finally, assay plate was washed and wells left empty before measurement of 700 nm and 800 nm fluorescence intensities on Odyssey imager set at 4.0 mm focus offset.

Sequence of human catalytic domain ROCK II protein (amino acids 5-554) with a N-terminal GST tag (O75116 5-554): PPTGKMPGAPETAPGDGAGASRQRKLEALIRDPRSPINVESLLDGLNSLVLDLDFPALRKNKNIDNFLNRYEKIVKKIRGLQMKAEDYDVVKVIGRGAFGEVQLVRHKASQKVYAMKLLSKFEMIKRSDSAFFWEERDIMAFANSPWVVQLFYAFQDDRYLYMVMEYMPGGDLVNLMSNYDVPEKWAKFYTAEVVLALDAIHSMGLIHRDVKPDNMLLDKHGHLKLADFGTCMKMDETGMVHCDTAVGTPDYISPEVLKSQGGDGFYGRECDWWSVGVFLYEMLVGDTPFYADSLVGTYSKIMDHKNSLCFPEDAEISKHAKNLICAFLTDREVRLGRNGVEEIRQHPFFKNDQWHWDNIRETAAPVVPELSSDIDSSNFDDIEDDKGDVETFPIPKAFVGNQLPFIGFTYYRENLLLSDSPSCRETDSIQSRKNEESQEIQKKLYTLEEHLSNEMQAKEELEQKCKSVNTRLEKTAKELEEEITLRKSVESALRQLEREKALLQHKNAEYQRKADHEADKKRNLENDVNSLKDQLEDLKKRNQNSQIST

Compound | pIC50 [1] | pIC50 [2]
C[C@H](NC(=O)N1CCN(c2ccncc2F)C[C@H]1C)c1cccc2nn(C)cc12 [Example 72, (R)-4-(3-Fluoropyridin-4-yl)-2-methyl-N—((S)-1-(2-methyl-2H-indazol-4-yl)ethyl)piperazine-1-carboxamide] | 7.06 | –
C[C@@H]1CN(c2ccncc2F)C[C@@H](C)N1C(=O)N[C@H](C)c1cccc2c1CCO2 [Example 96, (2R,6R)—N—((R)-1-(2,3-Dihydrobenzofuran-4-yl)ethyl)-4-(3-fluoropyridin-4-yl)-2,6-dimethylpiperazine-1-carboxamide] | 8.19 | 7.46
CC(NC(=O)N1CCN(c2ccncc2F)CC1)c1c(F)cccc1Cl (centres unmarked) [Example 26, N-(1-(2-Chloro-6-fluorophenyl)ethyl)-4-(3-fluoropyridin-4-yl)piperazine-1-carboxamide] | 7.18 | 5.93
C[C@@H](NC(=O)N1CCN(c2ccncc2F)[C@@H](C)C1)c1ccccc1Cl [Example 146] | 6.96 | 5.68
C[C@@H]1CN(c2ccncc2F)CCN1C(=O)N[C@H](C)c1cccc2c1CCO2 [Example 141] | 8.74 | 8.77
C[C@@H](NC(=O)N1CCN(c2ccncc2F)CC1)c1cccc2occc12 [Example 29, (R)—N-(1-(Benzofuran-4-yl)ethyl)-4-(3-fluoropyridin-4-yl)piperazine-1-carboxamide] | 8.35 | 7.27
C[C@@H](NC(=O)N1CCN(c2ccncc2F)CC1)c1cccc(OC(F)F)c1 [Example 127] | 7.62 | 6.37
C[C@@H]1CN(c2ccncc2F)CCN1C(=O)N[C@H](C)c1cccc2c1N(C)CCO2 [Example 143] | 5.51 | –
C[C@@H]1CN(c2ccncc2F)C[C@@H](C)N1C(=O)NCc1ccccc1Cl [Example 92, (2R,6R)—N-(2-Chlorobenzyl)-4-(3-fluoropyridin-4-yl)-2,6-dimethylpiperazine-1-carboxamide] | 6.25 | –
COc1cc(F)cc(CN2C[C@H]3CN(c4ccncc4F)CCN3C2=O)c1 [Example 85, (R)-2-(3-Fluoro-5-methoxybenzyl)-7-(3-fluoropyridin-4-yl)hexahydroimidazo[1,5-a]pyrazin-3(2H)-one] | 5.33 | –
C[C@@H]1CN(c2ccnc(F)c2)CCN1C(=O)NCc1cccc2c1OC(F)(F)O2 [Example 5, (R)—N-((2,2-Difluorobenzo[d][1,3]dioxol-4-yl)methyl)-4-(2-fluoropyridin-4-yl)-2-methylpiperazine-1-carboxamide] | 6.06 | –
Cc1cnc2cccc([C@H](C)NC(=O)N3CCN(c4ccncc4F)CC3)n12 [Example 35, (S)-4-(3-fluoropyridin-4-yl)-N-(1-(3-methylimidazo[1,2-a]pyridin-5-yl)ethyl)piperazine-1-carboxamide] | 6.85 | –
C[C@@H](NC(=O)N1CCN(c2ccncc2F)CC1)c1cccc2ccn(C)c12 [Example 32, (R)-4-(3-fluoropyridin-4-yl)-N-(1-(1-methyl-1H-indol-7-yl)ethyl)piperazine-1-carboxamide] | – | 6.39

The remaining lines, values ahead:

pIC50 [1] | pIC50 [2] | Compound
7.79 | 6.15 | C[C@@H](NC(=O)N1CCN(c2ccnc(F)c2)[C@@H](C)C1)c1cccc2c1CCO2 [Example 118]
6.93 | – | C[C@@H]1CN(c2ccnc(F)c2)CCN1C(=O)NCc1cccc2c1OCO2 [Example 6, (R)—N-(Benzo[d][1,3]dioxol-4-ylmethyl)-4-(2-fluoropyridin-4-yl)-2-methylpiperazine-1-carboxamide]
6.99 | – | COc1cccc(CNC(=O)N2CCN(c3ccnc(F)c3)[C@@H](C)C2)c1 [Example 121]
5.98 | – | O=C(NCc1cccc(OC(F)F)c1)N1CCN(c2ccnc(F)c2)CC1 [Example 103]
5.47 | – | C[C@@H]1CN(C(=O)N[C@H](C)c2ccc(F)cc2Cl)CCN1c1ccnc(F)c1 [Example 14, (R)—N—((R)-1-(2-Chloro-4-fluorophenyl)ethyl)-4-(2-fluoropyridin-4-yl)-3-methylpiperazine-1-carboxamide]
6.10 | – | C[C@H]1CN(C(=O)NCc2cccc(OC(F)F)c2)CCN1c1ccnc(F)c1 [Example 122]
